Laboratory results as given in PubChem BioAssay (NCI).
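Interpolation was linear, between the two tested concentrations surrounding the appropriate level; five concentrations were tested over 48 hours in 96-well plates. TGI: total growth inhibition.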

Assays:
Assay in all cases: NCI-60 cell line screen, 48 h
BT-549 breast = tested on: BT-549 breast
DLD-1 colon = tested on: DLD-1 colon
DMS 114 small cell lung = tested on: DMS 114 small cell lung
DMS 273 small cell lung = tested on: DMS 273 small cell lung
DU-145 prostate = tested on: DU-145 prostate
HS 578T breast = tested on: HS 578T breast
KM20L2 colon = tested on: KM20L2 colon
M19-MEL melanoma = tested on: M19-MEL melanoma
MDA-MB-231 breast = tested on: MDA-MB-231 breast
T-47D breast = tested on: T-47D breast
XF 498 CNS = tested on: XF 498 CNS
MDA-MB-435 = tested on: MDA-MB-435
NCI/ADR-RES ovarian = tested on: NCI/ADR-RES ovarian

Compound: ON(Cc1ccccc1)C(=S)c1ccccc1
- TGI (BT-549 breast): > 100 µM
- TGI (DLD-1 colon): > 100 µM
- TGI (DMS 114 small cell lung): 9.55 µM
- TGI (DMS 273 small cell lung): > 76.5 µM
- TGI (DU-145 prostate): > 100 µM
- TGI (HS 578T breast): > 100 µM
- TGI (KM20L2 colon): > 100 µM
- TGI (M19-MEL melanoma): > 100 µM
- TGI (MDA-MB-231 breast): > 100 µM
- TGI (T-47D breast): > 100 µM
- TGI (XF 498 CNS): > 100 µM

Compound: O=[N+]([O-])c1ccc(C2CC(c3ccccc3Cl)=Nc3ccccc3S2=O)cc1 (centres undefined)
- TGI (BT-549 breast): 31.1 µM
- TGI (DLD-1 colon): 4.1 µM
- TGI (DMS 114 small cell lung): 4.36 µM
- TGI (DMS 273 small cell lung): 8.87 µM
- TGI (DU-145 prostate): 34.1 µM
- TGI (HS 578T breast): 7.46 µM
- TGI (KM20L2 colon): 7.04 µM
- TGI (M19-MEL melanoma): 6.89 µM
- TGI (MDA-MB-231 breast): 5.29 µM
- TGI (T-47D breast): 44.2 µM
- TGI (XF 498 CNS): 18.4 µM

Compound: CN(C)C(=Nc1nc(=[N+](C)C)ss1)N(C)C
- TGI (DLD-1 colon): > 100 µM
- TGI (DMS 114 small cell lung): > 100 µM
- TGI (DMS 273 small cell lung): > 100 µM
- TGI (KM20L2 colon): > 100 µM
- TGI (M19-MEL melanoma): > 100 µM
- TGI (XF 498 CNS): > 100 µM

Compound: CN=C(NC(=S)N(C)C)N(C)C
- TGI (DLD-1 colon): > 100 µM
- TGI (DMS 114 small cell lung): > 100 µM
- TGI (DMS 273 small cell lung): > 100 µM
- TGI (KM20L2 colon): > 100 µM
- TGI (M19-MEL melanoma): > 100 µM
- TGI (XF 498 CNS): > 100 µM

Compound: C#CC[N+](C)(CC#C)CC#C
- TGI (DLD-1 colon): > 100 µM
- TGI (DMS 114 small cell lung): > 100 µM
- TGI (DMS 273 small cell lung): > 100 µM
- TGI (KM20L2 colon): > 100 µM
- TGI (M19-MEL melanoma): > 100 µM
- TGI (XF 498 CNS): > 100 µM

Compound: O=C1C2=C(c3ccccc31)C(c1ccccc1)N1C(=O)CSC1=N2 (centres undefined)
- TGI (BT-549 breast): 66.5 µM
- TGI (DLD-1 colon): > 100 µM
- TGI (DMS 114 small cell lung): > 100 µM
- TGI (DMS 273 small cell lung): > 100 µM
- TGI (DU-145 prostate): > 100 µM
- TGI (HS 578T breast): 82.2 µM
- TGI (KM20L2 colon): > 100 µM
- TGI (M19-MEL melanoma): > 100 µM
- TGI (MDA-MB-231 breast): > 100 µM
- TGI (MDA-MB-435): 37.3 µM
- TGI (NCI/ADR-RES ovarian): 59.1 µM
- TGI (T-47D breast): 77.6 µM
- TGI (XF 498 CNS): > 100 µM

Compound: CCC/C=C1\CCC(CN(C)C)C1=O (centres undefined)
- TGI (DLD-1 colon): 5.54 µM
- TGI (DMS 114 small cell lung): 31.2 µM
- TGI (DMS 273 small cell lung): 27.1 µM
- TGI (KM20L2 colon): 27.2 µM
- TGI (M19-MEL melanoma): 26.7 µM
- TGI (XF 498 CNS): 11.1 µM

Compound: Cc1c(CCO)c(=O)n2c([nH]c3ccccc32)c1C#N
- TGI (DLD-1 colon): > 100 µM
- TGI (DMS 114 small cell lung): > 100 µM
- TGI (DMS 273 small cell lung): > 100 µM
- TGI (KM20L2 colon): > 100 µM
- TGI (M19-MEL melanoma): > 100 µM
- TGI (XF 498 CNS): > 100 µM

Compound: Cn1c(=O)c(NC(=O)C(Cl)(Cl)Cl)nc2ccccc21
- TGI (DLD-1 colon): > 100 µM
- TGI (DMS 114 small cell lung): > 100 µM
- TGI (DMS 273 small cell lung): > 100 µM
- TGI (KM20L2 colon): > 100 µM
- TGI (M19-MEL melanoma): > 100 µM
- TGI (XF 498 CNS): > 100 µM

Compound: O=C(CSc1ncn[nH]1)C[P+](c1ccccc1)(c1ccccc1)c1ccccc1
- TGI (DLD-1 colon): > 100 µM
- TGI (DMS 114 small cell lung): > 100 µM
- TGI (DMS 273 small cell lung): > 100 µM
- TGI (KM20L2 colon): > 100 µM
- TGI (M19-MEL melanoma): > 100 µM
- TGI (XF 498 CNS): > 100 µM

Compound: COP(=O)(OC)C(NC(=O)C(F)(F)F)(c1ccccc1)C(F)(F)F (centres undefined)
- TGI (DLD-1 colon): > 100 µM
- TGI (DMS 114 small cell lung): > 100 µM
- TGI (DMS 273 small cell lung): > 100 µM
- TGI (KM20L2 colon): > 100 µM
- TGI (M19-MEL melanoma): > 100 µM
- TGI (XF 498 CNS): > 100 µM

Compound: CN(C)c1nnnn1-c1c(N)n(C)c(=O)n(C)c1=O
- TGI (DLD-1 colon): > 100 µM
- TGI (DMS 114 small cell lung): > 100 µM
- TGI (DMS 273 small cell lung): > 100 µM
- TGI (KM20L2 colon): > 100 µM
- TGI (M19-MEL melanoma): > 100 µM
- TGI (XF 498 CNS): > 100 µM

Compound: O=S(=O)(O)c1ccc(N=Nc2nc(C(F)(F)F)c(C(F)(F)F)[nH]2)cc1
- TGI (DLD-1 colon): > 100 µM
- TGI (DMS 114 small cell lung): 30.5 µM
- TGI (DMS 273 small cell lung): > 100 µM
- TGI (KM20L2 colon): > 100 µM
- TGI (M19-MEL melanoma): > 100 µM
- TGI (XF 498 CNS): 41.1 µM

Compound: C[N+](C)(C)CC1CCC/C1=N/O (centres undefined)
- TGI (DLD-1 colon): > 100 µM
- TGI (DMS 114 small cell lung): 39 µM
- TGI (DMS 273 small cell lung): > 100 µM
- TGI (KM20L2 colon): 49.4 µM
- TGI (M19-MEL melanoma): > 100 µM
- TGI (XF 498 CNS): 3.1 µM

Compound: Cc1cccc(C(C)C)c1N1C(=O)C(=O)C(c2nc3ccccc3o2)C(=O)C1=O
- TGI (DLD-1 colon): > 100 µM
- TGI (DMS 114 small cell lung): 75.8 µM
- TGI (DMS 273 small cell lung): > 100 µM
- TGI (KM20L2 colon): > 100 µM
- TGI (M19-MEL melanoma): > 100 µM
- TGI (XF 498 CNS): 69.1 µM

Compound: Cc1nc2c(o1)C(=Nc1ccccc1)c1ccccc1C2=O
- TGI (DLD-1 colon): 32 µM
- TGI (DMS 114 small cell lung): 8.57 µM
- TGI (DMS 273 small cell lung): 23.2 µM
- TGI (KM20L2 colon): 31.2 µM
- TGI (M19-MEL melanoma): 3.65 µM
- TGI (XF 498 CNS): 12.5 µM

Compound: COC(=O)C1C=CCON2CCc3c(n(C)c4ccccc34)C12 (centres undefined)
- TGI (DLD-1 colon): > 100 µM
- TGI (DMS 114 small cell lung): > 100 µM
- TGI (DMS 273 small cell lung): > 100 µM
- TGI (KM20L2 colon): > 100 µM
- TGI (M19-MEL melanoma): > 100 µM
- TGI (XF 498 CNS): > 100 µM
